Assay results from ChEMBL document CHEMBL3044561, “A rapid access to new coumarinyl chalcone and substituted chromeno[4,3-c]pyrazol-4(1H)-ones and their antibacterial and DPPH radical scavenging activities” (Med Chem Res, 2011).

What was measured:
Staphylococcus aureus = assay: Antibacterial activity against Staphylococcus aureus NCTC 7447 at 1 mg/disk after 24 hr by paper disk diffusion method; format: functional
[1] = system: Radical scavenging activity; assay: Antioxidant activity assessed as DPPH free radical scavenging activity after 30 min; format: functional

Compound | diameter of the inhibition zone (DIZ) (Staphylococcus aureus) [mm] | IC50 [1] [nM] | inhibition zone (IZ) (Staphylococcus aureus) [mm]
O=C(/C=C/c1ccc(F)cc1)c1c(O)c2ccccc2oc1=O | 13 | 2230 | –
COc1cc(/C=C/C(=O)c2c(O)c3ccccc3oc2=O)cc(OC)c1OC | 11 | 2290 | –
O=C(/C=C/c1ccccc1)c1c(O)c2ccccc2oc1=O | 10 | 2150 | –
O=C(/C=C/c1cccc2ccccc12)c1c(O)c2ccccc2oc1=O | 8 | 2390 | –
Cc1ccc(/C=C/C(=O)c2c(O)c3ccccc3oc2=O)cc1 | 13 | 2070 | –
GENTAMICIN | – | – | 15
COc1ccc(/C=C/C(=O)c2c(O)c3ccccc3oc2=O)cc1 | 14 | 2810 | –
CN(C)c1ccc(/C=C/C(=O)c2c(O)c3ccccc3oc2=O)cc1 | 11 | 2390 | –
O=C(/C=C/c1ccc([N+](=O)[O-])cc1)c1c(O)c2ccccc2oc1=O | 16 | 3210 | –
O=C(/C=C/c1ccc(Br)cc1)c1c(O)c2ccccc2oc1=O | 9 | 2250 | –
O=c1oc2ccccc2c2c1cnn2-c1ccccc1 | 19 | – | –
O=c1oc2ccccc2c2[nH]ncc12 | 14 | – | –
Cn1ncc2c(=O)oc3ccccc3c21 | 17 | – | –
